Experiments:
Experiment in all cases: relative viability (nuclei count vs DMSO), 5 days (fraction); higher = more cells survive
XMD13-2 + Foretinib = compound: C1CC1C(=O)NC2=NNC3=C2C=CC(=C3)C4=CC(=CC=C4)C(=O)NC5CC5 [XMD13-2] + COc1cc2c(Oc3ccc(NC(=O)C4(C(=O)Nc5ccc(F)cc5)CC4)cc3F)ccnc2cc1OCCCN1CCOCC1 [Foretinib] (partner 0.25 µM)
Outline: (§1)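 Five library-drug doses in √10 steps were combined with a fixed anchor-drug dose, or a single drug was given alone, by pin tool to lung cancer cell lines in 1536-well plates the day after seeding. Nuclei were stained and counted after 5 days. Relative viability is the nuclei count in treated wells over that in vehicle wells, taken as the median of duplicate plates.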

XMD13-2 + Pictilisib = compound: C1CC1C(=O)NC2=NNC3=C2C=CC(=C3)C4=CC(=CC=C4)C(=O)NC5CC5 [XMD13-2] + CS(=O)(=O)N1CCN(Cc2cc3nc(-c4cccc5[nH]ncc45)nc(N4CCOCC4)c3s2)CC1 [Pictilisib] (partner 1 µM)
Outline: as §1

ALW-II-49-7 + Luminespib = compound: Cc1ccc(C(=O)Nc2cccc(C(F)(F)F)c2)cc1Nc1cncc(C(N)=O)c1 [ALW-II-49-7] + CCNC(=O)c1noc(-c2cc(C(C)C)c(O)cc2O)c1-c1ccc(CN2CCOCC2)cc1 [Luminespib] (partner 0.01 µM)
Outline: as §1

Dasatinib + Lapatinib = compound: Cc1nc(Nc2ncc(C(=O)Nc3c(C)cccc3Cl)s2)cc(N2CCN(CCO)CC2)n1 [Dasatinib] + CS(=O)(=O)CCNCc1ccc(-c2ccc3ncnc(Nc4ccc(OCc5cccc(F)c5)c(Cl)c4)c3c2)o1 [Lapatinib] (partner 2 µM)
Outline: as §1

Cell Line | relative viability (XMD13-2 + Foretinib; first compound 0.05 µM) | relative viability (XMD13-2 + Foretinib; first compound 0.1581 µM) | relative viability (XMD13-2 + Foretinib; first compound 0.5 µM) | relative viability (XMD13-2 + Foretinib; first compound 1.581 µM) | relative viability (XMD13-2 + Foretinib; first compound 5 µM) | relative viability (XMD13-2 + Pictilisib; first compound 0.05 µM) | relative viability (XMD13-2 + Pictilisib; first compound 0.1581 µM) | relative viability (XMD13-2 + Pictilisib; first compound 0.5 µM) | relative viability (XMD13-2 + Pictilisib; first compound 1.581 µM) | relative viability (XMD13-2 + Pictilisib; first compound 5 µM) | relative viability (ALW-II-49-7 + Luminespib; first compound 0.08 µM) | relative viability (ALW-II-49-7 + Luminespib; first compound 0.253 µM) | relative viability (ALW-II-49-7 + Luminespib; first compound 0.8 µM) | relative viability (ALW-II-49-7 + Luminespib; first compound 2.53 µM) | relative viability (ALW-II-49-7 + Luminespib; first compound 8 µM) | relative viability (Dasatinib + Lapatinib; first compound 0.005 µM) | relative viability (Dasatinib + Lapatinib; first compound 0.01581 µM) | relative viability (Dasatinib + Lapatinib; first compound 0.05 µM) | relative viability (Dasatinib + Lapatinib; first compound 0.1581 µM) | relative viability (Dasatinib + Lapatinib; first compound 0.5 µM)
SK-LU-1 | 1.04 | 0.854 | 0.933 | 0.81 | 0.697 | 0.604 | 0.671 | 0.658 | 0.563 | 0.502 | 0.184 | 0.221 | 0.21 | 0.192 | 0.157 | 0.467 | 0.53 | 0.424 | 0.305 | 0.298
NCI-H2228 | 0.912 | 1.13 | 0.839 | 0.875 | 1.02 | 0.44 | 0.452 | 0.566 | 0.351 | 0.402 | 0.255 | 0.14 | 0.16 | 0.145 | 0.215 | 0.829 | 1.06 | 0.705 | 0.731 | 0.551
NCI-H2170 | 0.937 | 0.97 | 1.03 | 0.9 | 0.984 | 0.349 | 0.33 | 0.338 | 0.275 | 0.247 | 0.73 | 0.372 | 0.418 | 0.826 | 0.784 | 0.264 | 0.236 | 0.271 | 0.259 | 0.216
NCI-H2347 | 0.986 | 0.992 | 1.17 | 0.848 | 1.1 | 0.743 | 0.655 | 0.826 | 0.827 | 0.387 | 0.241 | 0.483 | 0.363 | 0.324 | 0.512 | 0.872 | 0.951 | 1.04 | 0.691 | 0.386
A-427 | 1.23 | 1.08 | 1.05 | 1.02 | 0.745 | 0.871 | 0.732 | 0.797 | 0.537 | 0.558 | 0.728 | 0.736 | 0.875 |  | 0.769 | 0.89 | 1.06 | 0.893 | 0.646 | 0.551
PC-14 | 1.04 | 0.947 | 0.981 | 0.995 | 0.976 | 0.995 | 0.684 | 0.67 | 0.608 | 0.766 | 0.191 | 0.161 | 0.119 |  | 0.125 | 0.29 | 0.282 | 0.242 | 0.208 | 0.0848
NCI-H2087 | 1.4 | 1.27 | 1.22 | 1.08 | 0.727 | 0.95 | 0.846 | 1.05 | 0.888 | 0.772 | 0.142 | 0.166 | 0.197 | 0.171 | 0.171 | 1.03 | 0.839 | 0.95 | 1.09 | 0.605
HOP-62 | 1.11 | 1.13 | 1.19 | 1.06 | 1 | 1.01 | 0.617 | 0.586 | 0.725 | 0.476 | 0.959 | 0.883 | 0.75 | 0.702 | 0.735 | 1.02 | 0.971 | 0.789 | 0.983 | 0.337
EKVX | 0.919 | 0.746 | 0.699 | 0.64 | 0.83 | 0.476 | 0.401 | 0.434 | 0.42 | 0.388 | 0.679 | 0.812 | 0.825 | 0.903 | 0.803 | 0.205 | 0.165 | 0.149 | 0.123 | 0.0913
EMC-BAC-2 | 1.11 | 1.01 | 0.791 | 0.957 | 0.61 | 0.596 | 0.497 | 0.531 | 0.505 | 0.413 | 1.07 | 1.14 | 1.22 | 1.06 | 0.998 | 0.936 | 0.708 | 0.613 | 0.667 | 0.334
HARA | 1.1 | 0.854 | 0.834 | 1.01 | 0.616 | 0.372 | 0.394 | 0.493 | 0.314 | 0.23 | 0.465 | 0.655 | 0.545 | 0.833 | 1.17 | 0.851 | 0.701 | 0.505 | 0.201 | 0.137
LU99A | 0.977 | 0.734 | 0.831 | 0.824 | 0.58 | 0.298 | 0.334 | 0.32 | 0.284 | 0.254 | 0.253 | 0.212 | 0.194 | 0.217 | 0.288 | 0.954 | 0.838 | 0.914 | 0.628 | 0.489
NCI-H1944 | 0.898 | 0.886 | 0.935 | 1.04 | 0.946 | 0.352 | 0.345 | 0.357 | 0.373 | 0.333 | 0.884 | 0.805 | 0.796 | 0.815 | 0.738 | 0.598 | 0.736 | 0.577 | 0.334 | 0.268
LK-2 | 1.45 | 0.959 | 1.06 | 1.16 | 1.16 | 0.744 | 0.464 | 0.581 | 0.619 | 0.582 |  | 0.184 | 0.174 | 0.205 | 0.185 | 0.772 | 0.612 | 0.412 | 0.313 | 0.283
NCI-H23 | 1.21 | 0.83 | 1.02 | 1.06 | 1.01 | 0.579 | 0.438 | 0.503 | 0.446 | 0.457 | 0.188 | 0.22 | 0.228 |  | 0.191 | 1.01 | 1.09 | 0.911 | 0.539 | 0.764
NCI-H647 | 1.36 | 1.13 | 1.31 | 1.21 | 0.796 | 0.534 | 0.491 | 0.393 | 0.296 | 0.277 | 0.134 | 0.206 | 0.236 | 0.167 | 0.154 | 0.524 | 0.449 | 0.393 | 0.237 | 0.189
201T | 1.28 | 1.09 | 1.12 | 1.15 | 1.16 | 0.747 | 0.72 | 0.639 | 0.673 | 0.719 | 1.06 | 0.907 | 1.07 | 0.993 | 1.09 | 0.931 | 0.81 | 0.924 | 0.875 | 0.486
NCI-H1734 | 1.05 | 0.843 | 0.864 | 0.8 | 0.658 | 0.558 | 0.45 | 0.444 | 0.423 | 0.389 | 0.209 | 0.177 | 0.169 | 0.181 | 0.186 | 1.02 | 0.755 | 0.894 | 0.508 | 0.531
NCI-H596 | 0.89 | 0.62 | 1.03 | 0.852 | 0.888 | 0.447 | 0.406 | 0.351 | 0.384 | 0.411 | 0.929 | 0.943 | 1.18 | 1.1 | 1.12 | 1.03 | 0.809 | 0.714 | 0.586 | 0.423

From the supplement of paper PMC10307832
